Source: patent US7326707B2, “Bicyclic melanocortin-specific compounds” (Palatin Technologies Incorporated, priority 2001, dated 2008)

How the values were obtained:
[1] = target: T1, MC1-R (B-16 mouse melanoma cells) (Mus musculus, UniProt Q01727); assay: Ki determination by the method of Example 4, MC1-R; type: cell-based
T1 construct: B-16 mouse melanoma cells (containing MC1-R); endogenous in cells; host or cells: B-16 mouse melanoma cells

hMC5-R = target: T2, hMC5-R (Homo sapiens, UniProt P33032); assay: Competitive inhibition binding assay, 125I-NDP-α-MSH, MC5-R; conditions: for Inhibition at 1 μM MC5-R: 1 μM compound, inhibition of 125I-NDP-α-MSH binding, mean of triplicates, results less than 0% reported as 0%
T2 construct: expressed in transfected cells
T2 sequence (P33032 whole entry): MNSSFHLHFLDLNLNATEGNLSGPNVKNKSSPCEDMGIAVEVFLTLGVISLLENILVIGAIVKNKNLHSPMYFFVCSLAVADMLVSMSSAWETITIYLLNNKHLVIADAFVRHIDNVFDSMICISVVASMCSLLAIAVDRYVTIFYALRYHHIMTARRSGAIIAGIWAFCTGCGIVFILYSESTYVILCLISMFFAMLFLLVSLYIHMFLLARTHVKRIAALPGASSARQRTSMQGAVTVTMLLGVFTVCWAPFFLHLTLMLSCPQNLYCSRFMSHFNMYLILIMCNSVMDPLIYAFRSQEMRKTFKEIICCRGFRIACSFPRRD
Method: (§1) Incubation was for 90 minutes at room temperature, after which the assay mixture was filtered and the membranes washed three times with ice cold buffer. The filter was dried and counted in a gamma counter for remaining radioactivity bound to the membranes. […] Each assay was conducted in triplicate and the actual mean values are described.

[2] = target: T1, MC1-R (B-16 mouse melanoma cells); assay: cAMP assay for agonist/antagonist status, MC1-R; type: cell-based; conditions: cAMP assay as in Example 5
Method: (§2) The Ki (nM) of certain compounds of the invention were determined. Functional evaluation of compounds at melanocortin receptors was performed by measuring the accumulation of intracellular cAMP in HEK-293 cells expressing MC3-R, MC4-R or MC5-R, and in B-16 mouse melanoma cells (containing MC1-R). Cells, suspended in Earle's Balanced Salt Solution containing 10 mM HEPES, pH 7.5, 5 mM MgCl2, 1 mM glutamine, 0.1% albumin and 0.6 mM 3-isobutyl-1-methyl-xanthine, a phosphodiesterase inhibitor, were plated in 96 well plates at a density of 0.5×10^5 cells per well. Cells were incubated with the test compounds in the presence or absence of α-MSH for 1 hour at 37° C. cAMP levels were measured by EIA (Amersham) in the cell lysates. Data analysis and EC50 values were determined using nonlinear regression analysis with Prism Graph-Pad software.
(§3) The agonist/antagonist status with respect to MC1-R, MC4-R and MC5-R of certain compounds of the invention was determined. Antagonistic activity was determined by measuring the inhibition of α-MSH-induced cAMP levels following exposure to the compounds as in Example 4.

[3] = target: T3, MC4-R (HEK-293 cells expressing MC4-R) (Homo sapiens, UniProt P32245); assay: Ki determination by the method of Example 4, MC4-R; type: cell-based
T3 construct: expressed in transfected cells; host or cells: HEK-293
T3 sequence (P32245 whole entry): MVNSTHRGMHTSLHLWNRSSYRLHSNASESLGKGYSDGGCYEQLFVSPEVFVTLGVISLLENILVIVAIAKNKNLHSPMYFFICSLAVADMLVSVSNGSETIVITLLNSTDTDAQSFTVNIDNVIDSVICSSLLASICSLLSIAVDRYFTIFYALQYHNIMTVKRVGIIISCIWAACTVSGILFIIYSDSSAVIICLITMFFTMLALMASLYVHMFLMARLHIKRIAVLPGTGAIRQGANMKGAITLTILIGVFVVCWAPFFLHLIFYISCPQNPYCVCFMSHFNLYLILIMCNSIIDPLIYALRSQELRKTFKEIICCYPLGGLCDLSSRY
Method: as §2

[4] = target: T4, MC3-R (HEK-293 cells expressing MC3-R) (Homo sapiens, UniProt P41968); assay: Ki determination by the method of Example 4, MC3-R; type: cell-based
T4 construct: expressed in transfected cells; host or cells: HEK-293
T4 sequence (P41968 whole entry): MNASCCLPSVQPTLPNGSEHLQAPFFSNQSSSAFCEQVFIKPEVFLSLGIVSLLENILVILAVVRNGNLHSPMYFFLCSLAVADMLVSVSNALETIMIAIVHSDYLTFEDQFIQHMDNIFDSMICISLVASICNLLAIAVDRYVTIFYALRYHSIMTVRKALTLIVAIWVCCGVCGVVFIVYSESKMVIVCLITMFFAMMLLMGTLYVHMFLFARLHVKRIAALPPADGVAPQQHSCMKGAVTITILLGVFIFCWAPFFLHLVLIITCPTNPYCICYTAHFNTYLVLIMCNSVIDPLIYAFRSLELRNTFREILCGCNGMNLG

hMC4-R = target: T5, hMC4-R (Homo sapiens, UniProt P32245); assay: Competitive inhibition binding assay, 125I-NDP-α-MSH, MC4-R; conditions: for Inhibition at 1 μM MC4-R: 1 μM compound, inhibition of 125I-NDP-α-MSH binding, mean of triplicates, results less than 0% reported as 0%
T5 construct: expressed in transfected cells
T5 sequence (P32245 whole entry): as the sequence (P32245 whole entry) above
Method: as §1

hMC3-R = target: T6, hMC3-R (Homo sapiens, UniProt P41968); assay: Competitive inhibition binding assay, 125I-NDP-α-MSH, MC3-R; conditions: for Inhibition at 1 μM MC3-R: 1 μM compound, inhibition of 125I-NDP-α-MSH binding, mean of triplicates, results less than 0% reported as 0%
T6 construct: expressed in transfected cells
T6 sequence (P41968 whole entry): as the sequence (P41968 whole entry) above
Method: as §1

[5] = target: T7, MC5-R (HEK-293 cells expressing MC5-R) (Homo sapiens, UniProt P33032); assay: Ki determination by the method of Example 4, MC5-R; type: cell-based
T7 construct: expressed in transfected cells; host or cells: HEK-293
T7 sequence (P33032 whole entry): as the sequence (P33032 whole entry) above

[6] = target: T3, MC4-R (HEK-293 cells expressing MC4-R); assay: cAMP assay for agonist/antagonist status, MC4-R; type: cell-based; conditions: cAMP assay as in Example 5
Method: as §2, §3

[7] = target: T8, B-16 mouse melanoma cells (containing MC1-R) (Mus musculus, UniProt Q01727); assay: Competitive inhibition binding assay, 125I-NDP-α-MSH, MC1-R; conditions: for Inhibition at 1 μM MC1-R: 1 μM compound, inhibition of 125I-NDP-α-MSH binding, mean of triplicates, results less than 0% reported as 0%
T8 construct: B-16 mouse melanoma cells (containing MC1-R); endogenous in cells; host or cells: B-16 mouse melanoma cells
T8 sequence (Q01727 whole entry): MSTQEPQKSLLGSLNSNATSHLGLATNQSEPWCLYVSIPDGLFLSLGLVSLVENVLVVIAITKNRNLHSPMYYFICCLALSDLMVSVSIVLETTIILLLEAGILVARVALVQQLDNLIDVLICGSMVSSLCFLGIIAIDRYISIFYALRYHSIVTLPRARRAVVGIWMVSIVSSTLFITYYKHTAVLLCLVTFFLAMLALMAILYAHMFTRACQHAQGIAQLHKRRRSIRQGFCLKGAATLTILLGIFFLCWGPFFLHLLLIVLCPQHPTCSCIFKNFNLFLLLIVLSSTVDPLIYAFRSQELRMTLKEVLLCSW
Method: as §1

[8] = target: T7, MC5-R (HEK-293 cells expressing MC5-R); assay: cAMP assay for agonist/antagonist status, MC5-R; type: cell-based; conditions: cAMP assay as in Example 5
Method: as §2, §3

Male Sprague-Dawley rats = assay: ICV food intake and body weight change; type: in vivo, rat; conditions: 1 nmol dose
Method: Change in food intake and body weight was evaluated for selected compounds. Male Sprague-Dawley rats weighing ˜300 g at the beginning of the experiment were kept on a 12 hour on/off light cycle. Lights out was adjusted to 12:00 p.m. to allow for dosing just prior to the start of their dark period. Rats (8-12/group) were fed powdered chow and water ad libitum. For 1 week before treatment, 24-hour food intake and body weight change was recorded to assess a baseline for the group during vehicle treatment. The rats were dosed ICV with vehicle or selected compounds (1-3 nmol). The changes in body weight and food intake for the 24 hour period after dosing were determined. The changes in body weight and food intake for the 48 hour period, and in same cases for 72 hours as well, after dosing were also measured to determined reversal of changes in body weight and food intake effect back to baseline.

T1 sequence (Q01727 whole entry): as above

Structure (SMILES)	Ki [1]	inhibition at 1 µM (hMC5-R)	Ki [3]	Ki [4]	inhibition at 1 µM (hMC4-R)	inhibition at 1 µM (hMC3-R)	Ki [5]	inhibition at 1 µM [7]	Inhibition at 1 μM MC5-R (hMC5-R)	Inhibition at 1 μM MC4-R (hMC4-R)	Inhibition at 1 μM MC3-R (hMC3-R)	Inhibition at 1 μM MC1-R [7]	agonist/antagonist status as to MC1-R [2]	agonist/antagonist status as to MC4-R [6]	agonist/antagonist status as to MC5-R [8]	24 hour change in food intake (Male Sprague-Dawley rats)	change in weight (Male Sprague-Dawley rats; 24 hour)
N=C(N)NCCCC1C(=O)N2C(COc3ccc4ccccc4c3)CCC2N1C(=O)C(N)Cc1ccc(Cl)cc1Cl (centres unmarked) [Compound B]	144 nM	69%	11 nM	132 nM	98%	75%	499 nM	54%	–	–	–	–	agonist	agonist	agonist	–	–
N=C(N)NCCCC1C(=O)N2C(Cc3ccc4ccccc4c3)CCC2N1C(=O)C(N)Cc1ccc(Cl)cc1Cl (centres unmarked) [Compound G]	63 nM	46%	19 nM	121 nM	93%	63%	1050 nM	76%	–	–	–	–	–	agonist	agonist	–	–
N=C(N)NCCCC1C(=O)N2C(COc3ccc4ccccc4c3)CCC2N1CC(N)Cc1ccc(Cl)cc1Cl (centres unmarked) [Compound O]	848 nM	49%	29 nM	505 nM	91%	28%	689 nM	2%	–	–	–	–	–	–	–	–	–
NCCCCC1C(=O)N2C(COc3ccc4ccccc4c3)CCC2N1C(=O)C(Cc1ccc(Cl)cc1)NC(=O)C1Cc2ccccc2CN1 (centres unmarked) [Example 11]	10 nM	73%	24 nM	787 nM	94%	24%	398 nM	95%	–	–	–	–	–	–	–	–	–
[2H]N[C@@H](Cc1cnc[nH]1)C(=O)N[C@@H](Cc1ccccc1)C(=O)N1C[C@H](OCc2ccccc2)C[C@H]1C(=O)NCCCCCN [Example 26]	–	–	–	–	–	–	–	–	14%	47%	0%	34%	–	–	–	–	–
[2H]N[C@@H](Cc1cnc[nH]1)C(=O)N[C@@H](Cc1ccccc1)C(=O)N1C[C@H](OCc2ccccc2)C[C@H]1C(=O)NCCCCCCN [Example 27]	–	–	–	–	–	–	–	–	17%	12%	0%	39%	–	–	–	–	–
N=C(N)NCCCC1C(=O)N2C(COc3ccc4ccccc4c3)CCC2N1C(=O)C(Cc1ccccc1Cl)NC(=O)C1CC(OCc2ccccc2)CN1 (centres unmarked) [Example 31]	–	–	–	–	–	–	–	–	–	–	–	–	agonist	agonist	–	–	–
[2H]N[C@@H](Cc1ccccc1)C(=O)N1C2CC[C@H](COc3ccccc3)N2C(=O)[C@@H]1CCCCN (some centres unmarked) [Example 36]	–	0%	–	–	0%	4%	–	1%	–	–	–	–	–	–	–	–	–
[2H]N[C@@H](Cc1ccccc1)C(=O)N1C2CC[C@H](COc3ccc4ccccc4c3)N2C(=O)[C@@H]1CCCCN (some centres unmarked) [Example 38]	–	1%	–	–	0%	13%	–	46%	–	–	–	–	–	–	–	–	–

Now from value to compound, other results behind:

Ki [1]	inhibition at 1 µM (hMC5-R)	Ki [3]	Ki [4]	inhibition at 1 µM (hMC4-R)	inhibition at 1 µM (hMC3-R)	Ki [5]	inhibition at 1 µM [7]	Inhibition at 1 μM MC5-R (hMC5-R)	Inhibition at 1 μM MC4-R (hMC4-R)	Inhibition at 1 μM MC3-R (hMC3-R)	Inhibition at 1 μM MC1-R [7]	Structure (SMILES)	agonist/antagonist status as to MC1-R [2]	agonist/antagonist status as to MC4-R [6]	agonist/antagonist status as to MC5-R [8]	24 hour change in food intake (Male Sprague-Dawley rats)	change in weight (Male Sprague-Dawley rats; 24 hour)
13 nM	95%	22 nM	181 nM	98%	75%	116 nM	98%	–	–	–	–	CCCCCCC(=O)NC(COCc1ccccc1)C(=O)NC(Cc1ccc(Cl)cc1)C(=O)N1C(CCCCN)C(=O)N2C(COc3ccc4ccccc4c3)CCC21 (centres unmarked) [Example 12]	–	–	–	–	–
81 nM	87%	9 nM	756 nM	98%	42%	301 nM	77%	–	–	–	–	N=C(N)NCCCC1C(=O)N2C(COc3ccc4ccccc4c3)CCC2N1C(=O)C(Cc1ccccc1Cl)NC(=O)C1Cc2ccccc2CN1 (centres unmarked) [Example 29]	–	–	–	–	–
121 nM	94%	41 nM	733 nM	94%	29%	151 nM	57%	–	–	–	–	N=C(N)NCCCC1C(=O)N2C(COc3ccc4ccccc4c3)CCC2N1C(=O)C(Cc1ccccc1Cl)NC(=O)C(N)COCc1ccccc1 (centres unmarked) [Example 30]	–	–	–	–	–
–	0%	–	–	36%	0%	–	–	–	–	–	–	[2H]N[C@@H](Cc1cnc[nH]1)C(=O)N[C@@H](Cc1ccccc1)C(=O)N1C2CC[C@H](COc3ccc4ccccc4c3)N2C(=O)[C@@H]1CCCCN (some centres unmarked) [Example 42]	–	–	–	–	–
1040 nM	–	–	312 nM	–	–	–	–	–	–	–	–	N=C(N)NCCCC1C(=O)N2C(COc3ccc4ccccc4c3)CCC2N1C(=O)C(Cc1ccc(Cl)cc1Cl)NC(=O)C1CCC(c2ccccc2)N1 (centres unmarked) [Example 46]	–	–	–	-9.52 g	-10.64 g
